These results are taken from patent US20240228458A1, “PYRIMIDINE DERIVATIVE HAVING PROTEIN KINASE INHIBITORY ACTIVITY, AND THERAPEUTIC PHARMACEUTICAL COMPOSITION COMPRISING SAME” (THERAPEX CO., LTD., priority 2021, published 2024).

Format in all cases: cell-based
In assay [1] the test system is Ba/F3 cells expressing EGFR-wt. In words: Growth inhibition (GI50) of Ba/F3 cells expressing EGFR-wt, Celltiter glo. As to conditions: Mus musculus, BaF3, 72 h. A digest of the protocol:
(§1)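 Viability read by CellTiter-Glo after 72 h compound exposure (37 °C, 5% CO2) of variant-expressing Ba/F3 cells plated at 100,000 cells/ml. Dosing 4 h post-seeding; 10-pt 4-fold series from 2 mM stock; 0.5% DMSO. GI50 = molar concentration (μM) giving half-maximal growth inhibition.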

The test system of assay [2] is Ba/F3 cells expressing del19/T790M/C797S (EGFR-DTC). Kind of assay: Growth inhibition (GI50) of Ba/F3 cells expressing del19/T790M/C797S (EGFR-DTC), Celltiter glo. The following applies: Mus musculus, BaF3, 72 h. In short, it runs like this:
as §1
On the technique in general: ATP-based viability assays read luminescence as a measure of living cells.

The subject of assay [3] is Ba/F3 cells expressing L858R/T790M/C797S (EGFR-LTC). Kind of assay: Growth inhibition (GI50) of Ba/F3 cells expressing L858R/T790M/C797S (EGFR-LTC), Celltiter glo. As to conditions: Mus musculus, BaF3, 72 h. A digest of the protocol: as §1
Another assay relates to parental Ba/F3 cell line. Kind of assay: Growth inhibition (GI50) of the parental Ba/F3 cell line (not introduced with EGFR variants), Celltiter glo. The following applies: Mus musculus, BaF3, 72 h, parental Ba/F3 cells. A digest of the protocol:
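Parental Ba/F3 cells (100,000 cells/ml) were treated with 10-point, 4-fold compound dilutions (0.5% DMSO; top stock 2 mM) for 72 h at 37 °C, 5% CO2. Viability was read by CellTiter-Glo; GI50 is the concentration (μM) giving 50% growth inhibition.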

In the case of `CN1CCN(C2CCN(c3ccc(Nc4ncc(Cl)c(Nc5cc(Cl)c(Cl)cc5NS(C)(=O)=O)n4)cc3F)CC2)CC1` [Example 101, N-(4,5-dichloro-2-((5-chloro-2-((3-fluoro-4-(4-(4-methylpiperazin-1-yl)piperidin-1-yl)phenyl)amino)pyrimidin-4-yl)amino)phenyl)methanesulfonamide], the GI50 (commonly the concentration giving 50% growth inhibition) was 100 to 500 nM in assay [1], 100 to 500 nM in assay [2], 100 to 500 nM in assay [3] and 2000 to 10000 nM in the assay on parental Ba/F3 cell line.

Regarding `CN1CCN(C2CCN(c3ccc4cc(Nc5ncc(Cl)c(Nc6cc(Cl)c(Cl)cc6NS(C)(=O)=O)n5)ccc4n3)CC2)CC1` [Example 102, N-(4,5-dichloro-2-((5-chloro-2-((2-(4-(4-methylpiperazin-1-yl)piperidin-1-yl)quinolin-6-yl)amino)pyrimidin-4-yl)amino)phenyl)methanesulfonamide], the GI50 lay in the range of 500 to 2000 nM in assay [1], 500 to 2000 nM in assay [2], 100 to 500 nM in assay [3] and 2000 to 10000 nM in the assay with parental Ba/F3 cell line.

`Cc1cc(Nc2ncc(Br)c(Nc3cc(Cl)ccc3NS(C)(=O)=O)n2)c(Cl)cc1N1CCC(N2CCC(N(C)C)C2)CC1` (centres unmarked) [Example 96, N-(2-((5-bromo-2-((2-chloro-4-(4-(3-(dimethylamino)pyrrolidin-1-yl)piperidin-1-yl)-5-methylphenyl)amino)pyrimidin-4-yl)amino)-4-chlorophenyl)methanesulfonamide]: the GI50 in assay [1] was 500 to 2000 nM; in assay [2], 500 to 2000 nM; in assay [3] it was 500 to 2000 nM; in the assay on parental Ba/F3 cell line, above 10000 nM.

With `COc1cc(N2CCC(N3CCN(C4CC4)CC3)CC2)c(C)cc1Nc1ncc(Br)c(Nc2ccc(F)cc2NS(C)(=O)=O)n1` [Example 42, N-(2-((5-bromo-2-((4-(4-(4-cyclopropylpiperazin-1-yl)piperidin-1-yl)-2-methoxy-5-methylphenyl)amino)pyrimidin-4-yl)amino)-5-fluorophenyl)methanesulfonamide], the GI50 lay in the range of 500 to 2000 nM in assay [1], 25 to 100 nM in assay [2], 100 to 500 nM in assay [3] and 500 to 2000 nM in the assay on parental Ba/F3 cell line.

Turning to `COc1cc(N2CCC(N3CCN(C)CC3)CC2)ccc1Nc1ncc(Cl)c(Nc2cc(Cl)ccc2NS(C)(=O)=O)n1` [Example 82, N-(4-chloro-2-((5-chloro-2-((2-methoxy-4-(4-(4-methylpiperazin-1-yl)piperidin-1-yl)phenyl)amino)pyrimidin-4-yl)amino)phenyl)methanesulfonamide], the GI50 fell in the range of 500 to 2000 nM in assay [1], 100 to 500 nM in assay [2], 100 to 500 nM in assay [3] and 500 to 2000 nM in the assay with parental Ba/F3 cell line.

In the case of `COc1cc(N2CCC(Nc3ccnn3C)CC2)c(C)cc1Nc1ncc(Br)c(Nc2ccc(F)cc2NS(C)(=O)=O)n1` [Example 41, N-(2-((5-bromo-2-((2-methoxy-5-methyl-4-(4-((1-methyl-1H-pyrazol-5-yl)amino)piperidin-1-yl)phenyl)amino)pyrimidin-4-yl)amino)-5-fluorophenyl)methanesulfonamide], the GI50 in assay [1] was in the range of 500 to 2000 nM; in assay [2], 100 to 500 nM; in assay [3] it was 500 to 2000 nM; with parental Ba/F3 cell line, 2000 to 10000 nM.

On to `CN1CCN(C2CCN(c3ccc(Nc4ncc(Cl)c(Nc5ccc6nccnc6c5P(C)(C)=O)n4)cc3F)CC2)CC1` [Example 125, (6-((5-chloro-2-((3-fluoro-4-(4-(4-methylpiperazin-1-yl)piperidin-1-yl)phenyl)amino)pyrimidin-4-yl)amino)quinoxalin-5-yl)dimethylphosphine oxide], for which the GI50 fell in the range of 100 to 500 nM in assay [1], 25 to 100 nM in assay [2], 100 to 500 nM in assay [3] and 100 to 500 nM with parental Ba/F3 cell line.

As to `COc1cc(N2CCC(N3CCN(C)CC3)CC2)c(Cl)cc1Nc1ncc(Cl)c(Nc2ccc3nccnc3c2NS(C)(=O)=O)n1` [Example 136, N-(6-((5-chloro-2-((5-chloro-2-methoxy-4-(4-(4-methylpiperazin-1-yl)piperidin-1-yl)phenyl)amino)pyrimidin-4-yl)amino)quinoxalin-5-yl)methanesulfonamide], the GI50 in assay [1] lay within 500 to 2000 nM; in assay [2] it was 100 to 500 nM; in assay [3] it was 100 to 500 nM; in the assay with parental Ba/F3 cell line it was 500 to 2000 nM.

Turning to `COc1nc(N2CCC(N(C)C)C2)ccc1Nc1ncc(Cl)c(Nc2ccc3nccnc3c2P(C)(C)=O)n1` (centres unmarked) [Example 127, (6-((5-chloro-2-((6-(3-(dimethylamino)pyrrolidin-1-yl)-2-methoxypyridin-3-yl)amino)pyrimidin-4-yl)amino)quinoxalin-5-yl)dimethylphosphine oxide], the GI50 is above 10000 nM in assay [1], 2000 to 10000 nM in assay [2], 2000 to 10000 nM in assay [3] and above 10000 nM in the assay on parental Ba/F3 cell line.

As to `CN1CCN(C2CCN(c3ccc(Nc4ncc(Cl)c(Nc5ccccc5CS(C)(=O)=O)n4)cc3F)CC2)CC1` [Example 63], the GI50 in assay [1] was 100 to 500 nM; in assay [2], 25 to 100 nM; in assay [3], 25 to 100 nM; with parental Ba/F3 cell line, 25 to 100 nM.

On to `COc1cc(N2CCC(N3CCN(C)CC3)CC2)c(Cl)cc1Nc1ncc(Br)c(Nc2ccc(F)cc2NS(C)(=O)=O)n1` [Example 26, N-(2-((5-bromo-2-((5-chloro-2-methoxy-4-(4-(4-methylpiperazin-1-yl)piperidin-1-yl)phenyl)amino)pyrimidin-4-yl)amino)-5-fluorophenyl)methanesulfonamide], for which the GI50 was 100 to 500 nM in assay [1], 25 to 100 nM in assay [2], 25 to 100 nM in assay [3] and 2000 to 10000 nM in the assay on parental Ba/F3 cell line.

With `COc1cc(N2CCC(N3CCN(C)CC3)CC2)c(C)cc1Nc1ncc(Cl)c(Nc2cc(Cl)ccc2NC(C)=O)n1` [Example 65, N-(4-chloro-2-((5-chloro-2-((2-methoxy-5-methyl-4-(4-(4-methylpiperazin-1-yl)piperidin-1-yl)phenyl)amino)pyrimidin-4-yl)amino)phenyl)acetamide], the GI50 in assay [1] lay in the range of 500 to 2000 nM; in assay [2] it was 100 to 500 nM; in assay [3], 100 to 500 nM; in the assay on parental Ba/F3 cell line, 500 to 2000 nM.

For the compound `CN1CCN(C2CCN(c3ccc(Nc4ncc(Br)c(Nc5ccc(F)cc5NS(C)(=O)=O)n4)c(Cl)c3)CC2)CC1` [Example 27, N-(2-((5-bromo-2-((2-chloro-4-(4-(4-methylpiperazin-1-yl)piperidin-1-yl)phenyl)amino)pyrimidin-4-yl)amino)-5-fluorophenyl)methanesulfonamide], the GI50 in assay [1] lay within 2000 to 10000 nM; in assay [2] it was 100 to 500 nM; in assay [3], 500 to 2000 nM; with parental Ba/F3 cell line, 2000 to 10000 nM.

With `COc1cc(N(C)CCCN2CCN(C)CC2)c(C)cc1Nc1ncc(Cl)c(Nc2cc(Cl)c(Cl)cc2NS(C)(=O)=O)n1` [Example 105, N-(4,5-dichloro-2-((5-chloro-2-((2-methoxy-5-methyl-4-(methyl(3-(4-methylpiperazin-1-yl)propyl)amino)phenyl)amino)pyrimidin-4-yl)amino)phenyl)methanesulfonamide], the concentration for 50% growth inhibition (GI50) (in assay [1]; in assay [2]; in assay [3]; in the assay with parental Ba/F3 cell line) was above 10000 nM in each case.

`COc1cc(N2CCC(N3CCN(C)CC3)CC2)ccc1Nc1ncc(Cl)c(Nc2cc(Cl)c(Cl)cc2NC(C)=O)n1` [Example 75, N-(4,5-dichloro-2-((5-chloro-2-((2-methoxy-4-(4-(4-methylpiperazin-1-yl)piperidin-1-yl)phenyl)amino)pyrimidin-4-yl)amino)phenyl)acetamide]: the GI50 (in assay [1]; in assay [2]; in assay [3]; with parental Ba/F3 cell line) was 100 to 500 nM each time.

Regarding `CN1CCN(C2CCN(c3ncc(Nc4ncc(Cl)c(Nc5ccc6nccnc6c5P(C)(C)=O)n4)cc3F)CC2)CC1` [Example 124, (6-((5-chloro-2-((5-fluoro-6-(4-(4-methylpiperazin-1-yl)piperidin-1-yl)pyridin-3-yl)amino)pyrimidin-4-yl)amino)quinoxalin-5-yl)dimethylphosphine oxide], the GI50 fell in the range of 100 to 500 nM in assay [1], 25 to 100 nM in assay [2], 25 to 100 nM in assay [3] and 100 to 500 nM in the assay on parental Ba/F3 cell line.

With `COc1nc(N2CCC(N3CCOCC3)CC2)ccc1Nc1ncc(Cl)c(Nc2ccc3ncccc3c2NS(C)(=O)=O)n1` [Example 117, N-(6-((5-chloro-2-((2-methoxy-6-(4-morpholinopiperidin-1-yl)pyridin-3-yl)amino)pyrimidin-4-yl)amino)quinolin-5-yl)methanesulfonamide], the GI50 was in the range of 500 to 2000 nM in assay [1], 500 to 2000 nM in assay [2], 500 to 2000 nM in assay [3] and 2000 to 10000 nM in the assay with parental Ba/F3 cell line.

As for `COc1cc(N2CCC(N3CCN(C)CC3)CC2)c(Cl)cc1Nc1ncc(Cl)c(Nc2ccc3ncccc3c2NS(C)(=O)=O)n1` [Example 118], the GI50 in assay [1] was 500 to 2000 nM; in assay [2], 100 to 500 nM; in assay [3], 100 to 500 nM; with parental Ba/F3 cell line it was above 10000 nM.

Consider `COc1cc(N2CCC(N3CCN(C)CC3)CC2)c(Cl)cc1Nc1ncc(Br)c(Nc2cc(Cl)ccc2-c2cnn[nH]2)n1` [Example 195], for which the GI50 lay within 100 to 500 nM in assay [1], 25 to 100 nM in assay [2], 25 to 100 nM in assay [3] and 100 to 500 nM in the assay on parental Ba/F3 cell line.

For `CC(=O)Nc1cc(Cl)c(Cl)cc1Nc1nc(Nc2ccc(N3CCC(N4CCN(C)CC4)CC3)cc2Cl)ncc1Cl` [Example 77, N-(4,5-dichloro-2-((5-chloro-2-((2-chloro-4-(4-(4-methylpiperazin-1-yl)piperidin-1-yl)phenyl)amino)pyrimidin-4-yl)amino)phenyl)acetamide], the GI50 (in assay [1]; in assay [2]; in assay [3]; with parental Ba/F3 cell line) was 500 to 2000 nM each time.
